One experiment concerns the target T1, Androgen receptor (Rattus norvegicus, UniProt P15207).
T1 sequence (P15207 whole entry): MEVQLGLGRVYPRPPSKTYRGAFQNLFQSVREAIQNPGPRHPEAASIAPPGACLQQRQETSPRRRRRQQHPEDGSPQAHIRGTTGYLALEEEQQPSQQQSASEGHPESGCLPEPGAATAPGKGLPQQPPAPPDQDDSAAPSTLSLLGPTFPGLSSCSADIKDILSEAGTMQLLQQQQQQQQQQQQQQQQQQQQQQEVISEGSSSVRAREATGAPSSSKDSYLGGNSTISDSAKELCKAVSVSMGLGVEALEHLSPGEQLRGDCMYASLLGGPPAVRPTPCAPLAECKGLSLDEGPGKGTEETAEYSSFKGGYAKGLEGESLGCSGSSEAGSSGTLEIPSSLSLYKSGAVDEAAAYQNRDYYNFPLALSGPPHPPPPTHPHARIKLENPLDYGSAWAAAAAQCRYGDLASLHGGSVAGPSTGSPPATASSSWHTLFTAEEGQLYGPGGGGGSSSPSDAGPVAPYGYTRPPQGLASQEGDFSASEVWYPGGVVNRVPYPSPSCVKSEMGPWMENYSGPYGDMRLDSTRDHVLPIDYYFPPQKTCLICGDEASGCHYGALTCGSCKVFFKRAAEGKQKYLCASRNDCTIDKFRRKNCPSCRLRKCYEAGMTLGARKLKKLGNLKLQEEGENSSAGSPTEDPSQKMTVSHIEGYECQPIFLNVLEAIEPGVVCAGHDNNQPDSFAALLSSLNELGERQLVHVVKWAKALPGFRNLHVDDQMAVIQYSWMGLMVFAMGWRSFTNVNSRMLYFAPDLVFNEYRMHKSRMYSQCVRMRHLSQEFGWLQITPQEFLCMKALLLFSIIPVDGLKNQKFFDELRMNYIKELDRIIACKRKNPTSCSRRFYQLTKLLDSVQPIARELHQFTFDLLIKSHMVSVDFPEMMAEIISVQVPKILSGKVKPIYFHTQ
Format: functional.

Another experiment has as its target T2, Thromboxane A2 receptor (Homo sapiens, UniProt P21731).
T2 sequence (P21731 whole entry): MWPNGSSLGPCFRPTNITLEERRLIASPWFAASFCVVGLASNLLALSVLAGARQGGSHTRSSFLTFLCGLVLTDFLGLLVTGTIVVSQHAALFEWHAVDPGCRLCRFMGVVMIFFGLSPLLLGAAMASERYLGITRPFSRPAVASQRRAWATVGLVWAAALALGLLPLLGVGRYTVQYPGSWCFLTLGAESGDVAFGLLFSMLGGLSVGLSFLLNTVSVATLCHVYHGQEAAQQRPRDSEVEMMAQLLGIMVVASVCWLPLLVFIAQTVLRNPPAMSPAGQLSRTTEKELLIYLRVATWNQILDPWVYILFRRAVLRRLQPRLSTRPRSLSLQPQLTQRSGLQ
Format: functional.

Experiment [1] concerns the target Synaptic vesicular amine transporter (Rattus norvegicus, UniProt Q01827). Format: functional.
A further experiment has as its target D(1A) dopamine receptor (Homo sapiens, UniProt P21728). Format: functional, cell-based.
In experiment [2] the target is Neurotensin receptor type 1 (Homo sapiens, UniProt P30989).
In experiment [3] the target is 5-hydroxytryptamine receptor 2B (Homo sapiens, UniProt P41595).
A further experiment deals with Histamine H2 receptor (Homo sapiens, UniProt P25021).
Experiment [4] concerns the target T3, Gastric inhibitory polypeptide receptor (Homo sapiens, UniProt P48546).
T3 sequence (P48546 whole entry): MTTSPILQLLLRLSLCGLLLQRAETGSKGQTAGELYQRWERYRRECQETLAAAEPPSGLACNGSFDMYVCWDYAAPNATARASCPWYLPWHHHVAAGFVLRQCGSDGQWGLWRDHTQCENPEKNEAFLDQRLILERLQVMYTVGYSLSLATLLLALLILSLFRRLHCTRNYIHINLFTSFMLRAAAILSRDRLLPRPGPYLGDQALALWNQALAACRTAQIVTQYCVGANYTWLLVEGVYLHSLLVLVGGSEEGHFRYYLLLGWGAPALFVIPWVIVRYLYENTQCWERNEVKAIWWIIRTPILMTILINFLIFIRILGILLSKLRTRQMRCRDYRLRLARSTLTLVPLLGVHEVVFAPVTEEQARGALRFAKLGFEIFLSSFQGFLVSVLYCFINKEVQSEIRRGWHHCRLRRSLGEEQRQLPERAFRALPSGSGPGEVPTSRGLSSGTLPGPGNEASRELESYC

Experiment [5] addresses T4, Endothelin receptor type B (Homo sapiens, UniProt P24530).
T4 sequence (P24530 whole entry): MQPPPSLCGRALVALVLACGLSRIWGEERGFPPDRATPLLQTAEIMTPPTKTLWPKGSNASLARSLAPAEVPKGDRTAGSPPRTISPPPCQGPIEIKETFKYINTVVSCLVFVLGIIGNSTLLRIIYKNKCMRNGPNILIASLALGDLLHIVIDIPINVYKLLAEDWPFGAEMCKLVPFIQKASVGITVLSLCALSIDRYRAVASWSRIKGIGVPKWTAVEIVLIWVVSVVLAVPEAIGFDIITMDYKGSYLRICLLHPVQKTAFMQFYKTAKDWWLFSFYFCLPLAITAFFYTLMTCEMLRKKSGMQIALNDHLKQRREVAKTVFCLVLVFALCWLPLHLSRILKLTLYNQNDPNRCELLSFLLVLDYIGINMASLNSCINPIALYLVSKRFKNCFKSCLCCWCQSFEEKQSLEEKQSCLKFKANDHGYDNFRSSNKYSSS

The term AC50 denotes the concentration at which the activity in the assay is half-maximal.

The structures appear in SMILES notation.
Note: assay procedure not described here.

D(1A) dopamine receptor, sequence (P21728 whole entry): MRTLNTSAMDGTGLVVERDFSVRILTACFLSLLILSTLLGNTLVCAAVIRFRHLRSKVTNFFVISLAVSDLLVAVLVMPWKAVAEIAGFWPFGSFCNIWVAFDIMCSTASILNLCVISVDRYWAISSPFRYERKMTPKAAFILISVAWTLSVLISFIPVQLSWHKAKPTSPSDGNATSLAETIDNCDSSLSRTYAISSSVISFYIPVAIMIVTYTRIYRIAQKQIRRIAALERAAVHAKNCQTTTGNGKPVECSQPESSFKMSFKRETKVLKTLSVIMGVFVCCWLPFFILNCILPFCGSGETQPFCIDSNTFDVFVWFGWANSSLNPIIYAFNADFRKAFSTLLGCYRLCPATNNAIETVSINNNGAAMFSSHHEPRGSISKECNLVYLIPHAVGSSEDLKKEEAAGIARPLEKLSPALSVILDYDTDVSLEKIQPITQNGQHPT
Histamine H2 receptor, sequence (P25021 whole entry): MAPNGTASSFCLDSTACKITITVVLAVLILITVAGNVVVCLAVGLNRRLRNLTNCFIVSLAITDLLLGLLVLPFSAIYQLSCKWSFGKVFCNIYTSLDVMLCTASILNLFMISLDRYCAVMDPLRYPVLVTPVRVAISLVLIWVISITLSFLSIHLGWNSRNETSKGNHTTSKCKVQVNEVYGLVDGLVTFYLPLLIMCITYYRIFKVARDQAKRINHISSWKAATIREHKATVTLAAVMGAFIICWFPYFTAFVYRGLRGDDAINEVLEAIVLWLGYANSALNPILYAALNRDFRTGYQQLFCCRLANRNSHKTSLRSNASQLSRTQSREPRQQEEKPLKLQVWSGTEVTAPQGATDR
Synaptic vesicular amine transporter, sequence (Q01827 whole entry): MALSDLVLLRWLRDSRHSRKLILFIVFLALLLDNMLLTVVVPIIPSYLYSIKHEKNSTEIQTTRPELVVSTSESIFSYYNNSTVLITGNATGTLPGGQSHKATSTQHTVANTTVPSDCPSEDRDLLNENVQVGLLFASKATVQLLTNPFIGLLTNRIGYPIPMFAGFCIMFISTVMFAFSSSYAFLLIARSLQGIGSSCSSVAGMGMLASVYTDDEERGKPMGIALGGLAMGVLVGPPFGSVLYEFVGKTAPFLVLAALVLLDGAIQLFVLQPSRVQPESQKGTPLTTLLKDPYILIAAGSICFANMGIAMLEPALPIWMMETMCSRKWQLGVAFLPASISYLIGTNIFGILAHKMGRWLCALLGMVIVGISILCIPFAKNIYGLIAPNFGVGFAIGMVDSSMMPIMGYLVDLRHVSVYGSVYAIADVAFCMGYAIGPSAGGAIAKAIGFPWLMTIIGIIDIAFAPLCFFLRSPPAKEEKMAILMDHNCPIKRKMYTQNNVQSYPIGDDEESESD
5-hydroxytryptamine receptor 2B, sequence (P41595 whole entry): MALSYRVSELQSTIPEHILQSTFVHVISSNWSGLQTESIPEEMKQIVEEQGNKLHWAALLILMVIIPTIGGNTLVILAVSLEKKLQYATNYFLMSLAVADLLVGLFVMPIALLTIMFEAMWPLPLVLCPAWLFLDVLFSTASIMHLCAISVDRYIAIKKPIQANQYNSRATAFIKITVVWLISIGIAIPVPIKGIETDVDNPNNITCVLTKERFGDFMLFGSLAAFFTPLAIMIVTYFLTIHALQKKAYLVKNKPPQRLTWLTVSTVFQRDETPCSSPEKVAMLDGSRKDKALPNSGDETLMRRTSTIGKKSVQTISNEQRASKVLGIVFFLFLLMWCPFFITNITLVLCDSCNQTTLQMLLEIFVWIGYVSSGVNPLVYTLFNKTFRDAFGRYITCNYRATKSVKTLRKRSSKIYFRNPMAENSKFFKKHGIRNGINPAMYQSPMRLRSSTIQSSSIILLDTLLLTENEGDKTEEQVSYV
Neurotensin receptor type 1, sequence (P30989 whole entry): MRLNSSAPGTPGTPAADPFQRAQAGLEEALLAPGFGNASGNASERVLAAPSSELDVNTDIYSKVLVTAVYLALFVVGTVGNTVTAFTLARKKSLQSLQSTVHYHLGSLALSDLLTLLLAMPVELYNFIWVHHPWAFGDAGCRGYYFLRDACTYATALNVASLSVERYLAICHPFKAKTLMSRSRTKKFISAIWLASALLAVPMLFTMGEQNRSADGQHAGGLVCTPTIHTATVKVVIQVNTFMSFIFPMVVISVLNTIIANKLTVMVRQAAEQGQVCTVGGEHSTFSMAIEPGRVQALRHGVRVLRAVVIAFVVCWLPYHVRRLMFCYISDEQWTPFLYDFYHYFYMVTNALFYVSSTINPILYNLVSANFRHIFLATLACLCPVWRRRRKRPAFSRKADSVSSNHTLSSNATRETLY

For the molecule `Cn1cnc2c(F)c(Nc3ccc(Br)cc3F)c(C(=O)NOCCO)cc21` [BINIMETINIB], the AC50 (at Androgen receptor; on Thromboxane A2 receptor; in experiment [1]; on D(1A) dopamine receptor) was greater than 30 µM throughout.

As for `Nc1c2c(nc3ccccc13)CCCC2O` (stereo not drawn) [VELNACRINE], the concentration at half-maximal activity (AC50) at Thromboxane A2 receptor and on D(1A) dopamine receptor was greater than 30 µM each time.

On to `NCC1(CC(=O)O)CCCCC1` [GABAPENTIN], for which the AC50 at Thromboxane A2 receptor was greater than 30 µM; in [2], greater than 30 µM; in experiment [3], greater than 10 µM; on Histamine H2 receptor, greater than 10 µM; in experiment [4], greater than 30 µM; in experiment [5], greater than 30 µM. At D(1A) dopamine receptor, this molecule showed an AC50 greater than 30 µM.
